Where a name gives a salt, the structure may show the parent alone.
Experiment: Drug-excipient compatibility study, 40° C./75% RH-4 W (% degradants)
Type: physicochemical

% Total (40° C./75% RH-4 W): 0.11% | Description (40° C./75% RH-4 W): Clear | % Total (Initial): 0.09% | Description (Initial): Clear
Compound: CC(C)(C(=O)O)c1ccc(C(O)CCCN2CCC(C(O)(c3ccccc3)c3ccccc3)CC2)cc1 (stereo not shown) [API, Fexofenadine HCl]

Source: patent US20220184052A1, “COMPOSITION COMPRISING FEXOFENADINE” (Cellix Bio Private Limited, priority 2020, published 2022)
